# In patent US20040191842A1, “Chemopreventive and therapeutic aspects of polyphenolic compositions and assays” (Medical College of Georgia Research Institute, Inc., priority 2002, published 2004):
# Legend:
# MCF7 cells [1] = experiment: Morphological analysis, MCF7 cells; type: cell-based, human; settings: EGCG, 48 hours, vs 24 hour control
# Description: Cell lines and cell culture. The normal human keratinocytes (NHEK CC-2507) were purchased from Cambrex (East Rutherford, N.J.) and maintained in KGM-2 medium (Cambrex). The OSC2 cell line was previously described (Osaki et al., Eur J Cancer B Oral Oncol 1994; 30 B:296-301). The breast carcinoma MCF7 cell line was purchased from American Type Culture Collection. The MCF7(C) caspase+cell line “7-3-28 ” was established and tested as previously described (Janicke et al., J Biol Chem 1998; 273:9357-60, Blanc et al., Cancer Res 2000; 60:4386-90). These tumor cells were maintained in 45% Dulbecco's Modified Eagle's Medium (DMEM), 45% Ham's F12 medium and 10% fetal calf serum, 100 I.U/ml penicillin, 100 μg/ml streptomycin and 5 μg/ml hydrocortisone. All cell cultures were maintained in a 37° C. incubator with 5% CO2. Light microscopic photographs were taken with a SPOT RT digital camera system (Diagnostic Instruments) linked to a Nikon Phase Contrast-2 microscope at an original magnification of 200×.
# [2] = as stated in Example 9; read-out: Cmax in the plasma; cited from earlier work
# Apaf-1 = experiment: Western blot of Apaf-1 in mammary epithelial cells; type: cell-based, human; settings: 15 μM EGCG, 24 h
# Method: Western blot analysis. The keratinocytes and the mammary epithelial cells were placed in KGM-2 and MEGM, respectively, overnight prior to treatment. Cells were lysed, after 24-hour treatment, in RIPA buffer (1% NP-40, 1% sodium deoxycholate, 0.1% SDS, 0.15 M NaCl, 0.01 M sodium phosphate, pH 7.2, and 1% Trasylol) containing proteinase inhibitors (1 mM PMSF, 1 μg/ml each of aprotinin, leupeptin, and pepstatin). The concentration of protein in each sample was determined using the BioRad DC Protein Assay and spectrophotometry. 50 μg of protein from each sample and a BioRad molecular weight standard marker were run on a 10% SDS-PAGE, followed by transfer to nitrocellulose membranes. Nonspecific binding to the membranes was blocked with 10% nonfat milk. Primary polyclonal (rabbit) antibodies and a horseradish peroxidase-conjugated goat anti-rabbit secondary antibody were used in conjunction with the ECL Chemiluminescence Kit (Amersham Pharmacia Biotech, New Jersey) and membranes were exposed to radiographic films for detection. Western blots were digitized for comparison of the intensity for each band using the ImageTool image analysis software program (University of Texas Health Science Center, San Antonio, Tex.). The integrated density of each band was measured using identical 1480 pixel areas of each Apfa-1 or Actin band at a scale of densities from 0 to 255. […]
# OSC-4 cells = experiment: Intracellular ROS levels (DFDA assay), OSC-4 cells; type: cell-based, human; settings: for intracellular ROS levels vs control: 120 minute time point
# Method: (§1) Measurement of intracellular ROS levels. The ROS assay measures the accumulation of intracellular ROS levels. The non-fluorescent dye DFDA passively diffuses into cells, where the acetates are cleaved by intracellular esterases. […] Thus, values of the fluorescence in the cell cultures are constantly rising in this assay. Cells (1.5×10^4 cells/well) were incubated with Hallam's physiological saline (HPS) containing DFDA (10 μM) in a 96-well microplate for 30 minutes at 37° C. After the incubation, cells were washed three times with HPS and then incubated with HPS containing EGCG (15-200 μM) or diamide (5 mM) for the indicated time periods. The intracellular ROS levels were measured by using a fluorescence plate reader (BIO-TEK FL600, Bio-Tek Instruments, Inc., Winooski, Vt.), at an excitation wavelength of 485 nm and an emission wavelength of 530 nm.
# as §1, with “assay (DFDA assay)” for “assay”, “dye dichlorofluorescein diacetate (DFDA)” for “dye DFDA”, “this assay due to the accumulation of ROS.” for “this assay.”, “EGCG (50-200” for “EGCG (15-200”, “indicated times.” for “indicated time periods.”
# MCF7 cells [3] = experiment: Cell growth assay, MCF7 cells; type: cell-based, human; settings: 50 μM EGCG, 96 hours
# Method: Cell growth assay. MCF7 cells were seeded (5×10^4) in 25 cm^2 tissue culture flask for 24 hours prior to EGCG or GTPPs incubation. Cells from each flask were trypsinized and counted at each time point on a hemacytometer.
# transglutaminase = experiment: Transglutaminase activity assay, exponentially growing keratinocytes; type: cell-based, human; settings: 50 μM or 100 μM EGCG
# Method: Transglutaminase activity assay. Normal human epidermal keratinocytes in early passages (2-3) were allowed to grow in 6-well tissue culture plates prior to EGCG exposure. The cells were scraped in homogenization buffer (0.1 M Tris/acetate, pH 8.5, containing 0.2 mM EDTA, 20 μM AEBSF, 2 μg/mL aprotinin, 2 μM leupeptin and 1 μM pepstatin A), collected by centrifugation and subjected to one freeze-thaw cycle prior to lysis by sonication. Unlysed cells were pelleted by centrifugation and aliquots of the supernatant collected for the determination of transglutaminase activity and protein concentration. Protein quantities were determined using the BioRad Protein Assay with bovine serum albumin as standard. Transglutaminase activity was measured as the incorporation of [^3 H] putrescine into dimethylated casein, as described previously (Jung et al., J Invest Dermatol, 1998; 110:318-23).
structure (smiles),measurement,setting,value
"O=C(O[C@@H]1Cc2c(O)cc(O)cc2O[C@@H]1c1cc(O)c(O)c(O)c1)c1cc(O)c(O)c(O)c1 [EGCG, (−)-epigallocatechin-3-gallate]",cell density,MCF7 cells [1],increased cell density was observed
same,Cmax,[2],10 µM
same,Apaf-1 protein level increase above control (densitometry),Apaf-1,47%
same,intracellular ROS levels vs controls,"OSC-4 cells; 50 μM EGCG, 60 minute exposure",remained comparable to the controls
same,intracellular ROS levels vs control,OSC-4 cells; 50 μM EGCG,ROS levels identical to the control cells
same,intracellular ROS levels vs control,OSC-4 cells; 200 μM EGCG,remained higher than the control cells
same,time at which rate of ROS production peaked,OSC-4 cells; EGCG,60 min
same,H2O2 concentration producing ROS equivalent to 200 μM EGCG,OSC-4 cells; first hour,100 µM
same,cell number compared to untreated cultures,MCF7 cells [3],only an insignificant decrease in cell number
same,transglutaminase activity vs control,transglutaminase,significantly higher activity
